Columns and labels:
human FGFR3 enzyme = human FGFR3 enzyme (Homo sapiens (Human), UniProt P22607); assay: Inhibitory activity against the FGFR3 enzyme (phosphorylation of biotinylated peptide, time-resolved fluorescence)
Excerpt: Inhibitory Activity Against the FGFR3 Enzyme
(§1) Phosphorylated biotinylated peptides were detected by the time-resolved fluorescent measurement using a europium cryptate-linked anti-phophotyrosine antibody and a streptavidin to which XL665, a derivative of allophycocyanine, is linked.

human FGFR1 enzyme = human FGFR1 enzyme (Homo sapiens (Human), UniProt P11362); assay: Inhibitory activity against the FGFR1 enzyme (phosphorylation of biotinylated peptide, time-resolved fluorescence)
Excerpt: Inhibitory Activity Against the FGFR1 Enzyme
as §1

human FGFR2 enzyme = human FGFR2 enzyme (Homo sapiens (Human), UniProt P21802); assay: Inhibitory activity against the FGFR2 enzyme (phosphorylation of biotinylated peptide, time-resolved fluorescence)
Sequence of human FGFR2 enzyme (P21802 22-821): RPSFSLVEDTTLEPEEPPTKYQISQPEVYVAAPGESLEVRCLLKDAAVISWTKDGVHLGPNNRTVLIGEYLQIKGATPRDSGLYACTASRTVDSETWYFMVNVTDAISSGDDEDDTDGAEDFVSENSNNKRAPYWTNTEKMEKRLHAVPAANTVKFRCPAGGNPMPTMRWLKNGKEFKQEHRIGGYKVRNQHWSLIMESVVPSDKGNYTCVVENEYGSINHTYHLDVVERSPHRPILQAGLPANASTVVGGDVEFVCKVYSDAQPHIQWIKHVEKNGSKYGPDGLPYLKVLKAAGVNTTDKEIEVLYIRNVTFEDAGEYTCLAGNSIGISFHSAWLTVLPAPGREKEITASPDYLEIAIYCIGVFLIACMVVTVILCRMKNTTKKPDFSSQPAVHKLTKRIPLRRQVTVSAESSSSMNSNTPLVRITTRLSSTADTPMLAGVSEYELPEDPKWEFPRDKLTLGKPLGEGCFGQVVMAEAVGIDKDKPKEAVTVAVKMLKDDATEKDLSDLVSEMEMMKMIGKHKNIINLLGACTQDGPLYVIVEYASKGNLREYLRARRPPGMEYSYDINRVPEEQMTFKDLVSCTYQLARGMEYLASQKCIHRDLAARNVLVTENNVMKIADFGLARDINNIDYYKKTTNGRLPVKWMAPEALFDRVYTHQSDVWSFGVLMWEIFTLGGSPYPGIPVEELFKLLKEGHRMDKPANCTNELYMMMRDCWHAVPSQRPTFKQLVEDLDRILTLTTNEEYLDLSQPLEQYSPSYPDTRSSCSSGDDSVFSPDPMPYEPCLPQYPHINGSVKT
Excerpt: as §1

Sequence of human FGFR3 enzyme (P22607 23-806): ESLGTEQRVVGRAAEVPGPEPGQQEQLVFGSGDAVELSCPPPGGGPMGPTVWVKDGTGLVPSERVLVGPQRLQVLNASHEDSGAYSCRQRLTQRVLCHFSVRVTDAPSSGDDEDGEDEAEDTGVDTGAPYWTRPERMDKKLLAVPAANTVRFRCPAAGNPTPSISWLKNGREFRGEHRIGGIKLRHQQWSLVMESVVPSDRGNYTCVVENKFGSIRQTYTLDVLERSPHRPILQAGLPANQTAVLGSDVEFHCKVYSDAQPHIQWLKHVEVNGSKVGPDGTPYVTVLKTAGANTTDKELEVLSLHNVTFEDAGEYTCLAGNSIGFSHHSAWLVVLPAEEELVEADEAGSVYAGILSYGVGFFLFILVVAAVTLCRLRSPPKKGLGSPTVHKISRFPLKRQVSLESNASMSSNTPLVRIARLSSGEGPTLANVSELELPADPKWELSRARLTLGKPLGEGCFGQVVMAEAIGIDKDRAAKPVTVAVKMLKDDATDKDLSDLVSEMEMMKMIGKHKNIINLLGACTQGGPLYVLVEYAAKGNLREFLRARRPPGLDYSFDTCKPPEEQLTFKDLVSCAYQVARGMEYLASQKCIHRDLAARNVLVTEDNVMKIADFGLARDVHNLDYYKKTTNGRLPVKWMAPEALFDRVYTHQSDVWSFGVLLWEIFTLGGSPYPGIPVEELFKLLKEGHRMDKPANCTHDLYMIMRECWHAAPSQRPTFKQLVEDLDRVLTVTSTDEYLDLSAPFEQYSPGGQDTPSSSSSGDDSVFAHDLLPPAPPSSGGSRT
Sequence of human FGFR1 enzyme (P11362 22-822): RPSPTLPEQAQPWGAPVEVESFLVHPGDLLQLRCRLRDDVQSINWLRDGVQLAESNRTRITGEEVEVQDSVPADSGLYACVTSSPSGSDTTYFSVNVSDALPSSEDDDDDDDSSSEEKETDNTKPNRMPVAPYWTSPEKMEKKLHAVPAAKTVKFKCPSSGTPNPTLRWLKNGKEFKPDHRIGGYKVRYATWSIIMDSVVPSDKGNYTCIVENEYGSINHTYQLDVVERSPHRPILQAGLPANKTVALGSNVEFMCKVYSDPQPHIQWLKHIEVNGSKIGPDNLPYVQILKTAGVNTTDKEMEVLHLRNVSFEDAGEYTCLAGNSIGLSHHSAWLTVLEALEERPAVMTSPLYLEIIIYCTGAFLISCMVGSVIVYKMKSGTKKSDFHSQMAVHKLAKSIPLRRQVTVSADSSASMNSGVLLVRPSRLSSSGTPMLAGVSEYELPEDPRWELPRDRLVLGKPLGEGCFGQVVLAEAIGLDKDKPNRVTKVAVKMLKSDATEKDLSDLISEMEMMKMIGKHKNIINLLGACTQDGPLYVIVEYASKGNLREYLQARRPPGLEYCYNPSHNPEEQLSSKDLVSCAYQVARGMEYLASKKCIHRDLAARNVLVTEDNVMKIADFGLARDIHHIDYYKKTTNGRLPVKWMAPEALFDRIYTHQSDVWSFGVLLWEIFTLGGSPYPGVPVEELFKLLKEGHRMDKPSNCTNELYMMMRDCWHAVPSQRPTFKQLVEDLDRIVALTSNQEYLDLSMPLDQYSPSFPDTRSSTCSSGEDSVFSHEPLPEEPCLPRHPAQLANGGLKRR

IC50 (human FGFR3 enzyme) [nM]	IC50 (human FGFR1 enzyme) [nM]	IC50 (human FGFR2 enzyme) [nM]	Structure (SMILES)
≤ 300			Cc1nc2cc(-n3ncc(C(=O)c4cc5ccc(-c6ccnnc6)cc5[nH]4)c3N)ccc2[nH]1 [Example 89, [5-amino-1-(2-methyl-1H-benzimidazol-5-yl)-1H-pyrazol-4-yl]-(6-pyridazin-4-yl-1H-indol-2-yl)-methanone]
≤ 300			Cc1ccnc(-c2ccc3cc(C(=O)c4cnn(-c5ccc6[nH]c(C)nc6c5)c4N)[nH]c3c2)c1 [Example 32]
≤ 300			Cc1nc2cc(-n3ncc(C(=O)c4cc5cc6c(cc5[nH]4)OCO6)c3N)ccc2[nH]1 [Example 61, [5-amino-1-(2-methyl-1H-benzimidazol-5-yl)-1H-pyrazol-4-yl]-(5H-[1,3]dioxolo[4,5-f]indol-6-yl)-methanone]
≤ 300	≤ 300	≤ 300	Cc1nc2cc(-n3ncc(C(=O)c4cc5ccc(-c6ccc(N7CCNCC7)nc6)cc5[nH]4)c3N)ccc2[nH]1 [Example 110, [5-amino-1-(2-methyl-1H-benzimidazol-5-yl)-1H-pyrazol-4-yl]-[6-(6-piperazin-1-yl-pyridin-3-yl)-1H-indol-2-yl]-methanone]

— US8829199B2, “Aminopyrazole derivative” (Chugai Seiyaku Kabushiki Kaisha, priority 2009, dated 2014)
